The values below come from patent US20150038438A1, “ANTIBACTERIAL COMPOUNDS AND METHODS FOR USE” (PTC THERAPEUTICS, INC., priority 2011, published 2015).

The structures appear in SMILES notation. Values after ≈ are worked out from the molar mass of the structure shown. Where a name gives a salt, the structure may show the parent alone.

Common to all, as to assay: Antibacterial activity, microbroth dilution method (MIC)
The subject of assay [1] is control Gram-negative E. coli 25922 strain. The format is cell-based, Escherichia coli. As to conditions: Escherichia coli. The essentials:
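Broth microdilution; endpoint = no macroscopic growth; value = lowest inhibiting concn, μg/mL.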

For assay [2], the system named is Gram-positive Staphylococcus aureus (S. aureus) 29213. The format is cell-based. As to conditions: Staphylococcus aureus, Gram-positive S. aureus 29213. A digest of the protocol: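 Potency is reported as minimum inhibitory concentration in μg/mL, determined by broth microdilution as the lowest level of compound that stops growth visible to the eye.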
The subject of assay [3] is super sensitive Gram-negative Escherichia coli (E. coli) BAS849. The format is cell-based. The note with it: Escherichia coli; super sensitive Gram-negative E. coli BAS849; microbroth dilution; read-out: MIC, E. coli BAS849. The essentials: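 Broth microdilution against S. aureus 29213, E. coli 25922 and hypersensitive E. coli BAS849. MIC in μg/mL is the lowest drug concentration preventing macroscopically visible growth under test conditions.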
A general note: In broth dilution the organism is exposed to a series of concentrations in liquid medium.

The term MIC denotes the lowest concentration that inhibits growth of the organism.

`Cl.O=C(O)c1c(O)c2c([nH]c1=O)-c1ccc(N3C[C@H]4CCCN[C@H]4C3)cc1CCC2` [Cpd 114, 9-((4aR,7aR)-hexahydro-1H-pyrrolo[3,4-b]pyridin-6(2H)-yl)-4-hydroxy-2-oxo-2,5,6,7-tetrahydro-1H-benzo[6,7]cyclohepta[1,2-b]pyridine-3-carboxylic acid hydrochloride]: the MIC in assay [1] was 3.5 to 12.5 µg/mL; in assay [2], 12.5 to 150 µg/mL; in assay [3], 1 to 3.5 µg/mL.

As for `CN1CCC[C@@H]2CN(c3ccc4c(c3)CCCc3c-4[nH]c(=O)c(C(=O)O)c3O)C[C@@H]21.Cl` [Cpd 115, 4-hydroxy-9-((4aR,7aR)-1-methylhexahydro-1H-pyrrolo[3,4-b]pyridin-6(2H)-yl)-2-oxo-2,5,6,7-tetrahydro-1H-benzo[6,7]cyclohepta[1,2-b]pyridine-3-carboxylic acid hydrochloride], the minimum inhibitory concentration (MIC) was 12.5 to 150 µg/mL in assay [1], 12.5 to 150 µg/mL in assay [2] and 3.5 to 12.5 µg/mL in assay [3].

For `CN(C)C1CCN(c2ccc3c(c2)CCCc2c-3[nH]c(=O)c(C(=O)O)c2O)CC1.Cl` [Cpd 116, 9-(4-(dimethylamino)piperidin-1-yl)-4-hydroxy-2-oxo-2,5,6,7-tetrahydro-1H-benzo[6,7]cyclohepta[1,2-b]pyridine-3-carboxylic acid hydrochloride], the results for the MIC in assay [1], in assay [2] and in assay [3] were 12.5 to 150 µg/mL, 12.5 to 150 µg/mL and 3.5 to 12.5 µg/mL, respectively.

Consider `CN(C)C1CCCN(c2ccc3c(c2)CCCc2c-3[nH]c(=O)c(C(=O)O)c2O)C1.Cl` (stereo not drawn) [Cpd 117, 9-(3-(dimethylamino)piperidin-1-yl)-4-hydroxy-2-oxo-2,5,6,7-tetrahydro-1H-benzo[6,7]cyclohepta[1,2-b]pyridine-3-carboxylic acid hydrochloride], for which the results for the minimal inhibitory concentration (MIC) in assay [1], in assay [2] and in assay [3] were 12.5 to 150 µg/mL, 12.5 to 150 µg/mL and 3.5 to 12.5 µg/mL, respectively.

On to `Cl.O=C(O)c1c(O)c2c([nH]c1=O)-c1ccc(NC3CCNCC3)cc1CCC2` [Cpd 118, 4-hydroxy-2-oxo-9-(piperidin-4-ylamino)-2,5,6,7-tetrahydro-1H-benzo[6,7]cyclohepta[1,2-b]pyridine-3-carboxylic acid hydrochloride], for which the MIC in assay [1], in assay [2] and in assay [3] was 12.5 to 150 µg/mL in each case.

For the molecule `Cl.O=C(O)c1c(O)c2c([nH]c1=O)-c1ccc(N3CCNCC3)cc1CCC2` [Cpd 119, 4-hydroxy-2-oxo-9-(piperazin-1-yl)-2,5,6,7-tetrahydro-1H-benzo[6,7]cyclohepta[1,2-b]pyridine-3-carboxylic acid hydrochloride], the results for the minimum inhibitory concentration (MIC) in assay [1], in assay [2] and in assay [3] were 12.5 to 150 µg/mL, 12.5 to 150 µg/mL and 3.5 to 12.5 µg/mL, respectively.

Turning to `CN1CCN(c2ccc3c(c2)CCCc2c-3[nH]c(=O)c(C(=O)O)c2O)CC1.Cl` [Cpd 120, 4-hydroxy-9-(4-methylpiperazin-1-yl)-2-oxo-2,5,6,7-tetrahydro-1H-benzo[6,7]cyclohepta[1,2-b]pyridine-3-carboxylic acid hydrochloride], the figures for the minimal inhibitory concentration (MIC) in assay [1], in assay [2] and in assay [3] were 12.5 to 150 µg/mL, 12.5 to 150 µg/mL and 1 to 3.5 µg/mL, respectively.

For `Cl.O=C(O)c1c(O)c2c([nH]c1=O)-c1ccc(N3CCC4(CNC4)C3)cc1CCC2` [Cpd 121, 4-hydroxy-2-oxo-9-(2,6-diazaspiro[3.4]octan-6-yl)-2,5,6,7-tetrahydro-1H-benzo[6,7]cyclohepta[1,2-b]pyridine-3-carboxylic acid hydrochloride], the figures for the minimum inhibitory concentration (MIC) in assay [1], in assay [2] and in assay [3] were 12.5 to 150 µg/mL, 12.5 to 150 µg/mL and 3.5 to 12.5 µg/mL, respectively.

For `Cl.O=C(O)c1c(O)c2c([nH]c1=O)-c1ccc(N3CCC4(CCNC4)C3)cc1CCC2` (stereo not drawn) [Cpd 122, 4-hydroxy-2-oxo-9-(2,7-diazaspiro[4.4]nonan-2-yl)-2,5,6,7-tetrahydro-1H-benzo[6,7]cyclohepta[1,2-b]pyridine-3-carboxylic acid hydrochloride], the MIC in assay [1], in assay [2] and in assay [3] was 12.5 to 150 µg/mL each time.

Turning to `CN1CCC2(CCN(c3ccc4c(c3)CCCc3c-4[nH]c(=O)c(C(=O)O)c3O)C2)C1.Cl` (stereo not drawn) [Cpd 123, 4-hydroxy-9-(7-methyl-2,7-diazaspiro[4.4]nonan-2-yl)-2-oxo-2,5,6,7-tetrahydro-1H-benzo[6,7]cyclohepta[1,2-b]pyridine-3-carboxylic acid hydrochloride], the MIC is 3.5 to 12.5 µg/mL in assay [1], 12.5 to 150 µg/mL in assay [2] and less than 1 µg/mL in assay [3].

As to `N[C@@H]1[C@H]2CN(c3cc4c(c(F)c3F)-c3[nH]c(=O)c(C(=O)O)c(O)c3CCC4)C[C@@H]12` [Cpd 124, 9-((cis,cis)-6-amino-3-azabicyclo[3.1.0]hexan-3-yl)-10,11-difluoro-4-hydroxy-2-oxo-2,5,6,7-tetrahydro-1H-benzo[6,7]cyclohepta[1,2-b]pyridine-3-carboxylic acid hydrochloride], the minimum inhibitory concentration (MIC) in assay [1] was 3.5 to 12.5 µg/mL; in assay [2], 12.5 to 150 µg/mL; in assay [3], less than 1 µg/mL.

For `N[C@@H]1[C@H]2CN(c3cc(F)c4c(c3)CCCc3c-4[nH]c(=O)c(C(=O)O)c3O)C[C@@H]12` [Cpd 125, 9-((cis,cis)-6-amino-3-azabicyclo[3.1.0]hexan-3-yl)-11-fluoro-4-hydroxy-2-oxo-2,5,6,7-tetrahydro-1H-benzo[6,7]cyclohepta[1,2-b]pyridine-3-carboxylic acid hydrochloride], the results for the MIC in assay [1], in assay [2] and in assay [3] were 3.5 to 12.5 µg/mL, 12.5 to 150 µg/mL and less than 1 µg/mL, respectively.

For the molecule `O=C(O)c1c(O)c2c([nH]c1=O)-c1ccc(N3CCCC3)cc1CCCC2` [Cpd 126, 4-hydroxy-2-oxo-10-(pyrrolidin-1-yl)-1,2,5,6,7,8-hexahydrobenzo[7,8]cycloocta[1,2-b]pyridine-3-carboxylic acid], the MIC in assay [1] was 12.5 to 150 µg/mL (≈ 35.3 to 423 µM); in assay [2], 1 to 3.5 µg/mL (≈ 2.82 to 9.88 µM); in assay [3], less than 1 µg/mL.

As to `N[C@@H]1[C@H]2CN(c3ccc4c(c3)CCCCc3c-4[nH]c(=O)c(C(=O)O)c3O)C[C@@H]12` [Cpd 127, 10-((cis,cis)-6-amino-3-azabicyclo[3.1.0]hexan-3-yl)-4-hydroxy-2-oxo-1,2,5,6,7,8-hexahydrobenzo[7,8]cycloocta[1,2-b]pyridine-3-carboxylic acid hydrochloride], the MIC in assay [1] is less than 1 µg/mL; in assay [2], 3.5 to 12.5 µg/mL; in assay [3], less than 1 µg/mL.

`CCCNc1ccc2c(c1)CCCCc1c-2[nH]c(=O)c(C(=O)O)c1O` [Cpd 128, 4-hydroxy-2-oxo-10-(propylamino)-1,2,5,6,7,8-hexahydrobenzo[7,8]cycloocta[1,2-b]pyridine-3-carboxylic acid]: the minimum inhibitory concentration (MIC) in assay [1] lay within 12.5 to 150 µg/mL (≈ 36.5 to 438 µM); in assay [2] it was 3.5 to 12.5 µg/mL (≈ 10.2 to 36.5 µM); in assay [3] it was 1 to 3.5 µg/mL (≈ 2.92 to 10.2 µM).

With `CCNc1ccc2c(c1)CCCCc1c-2[nH]c(=O)c(C(=O)O)c1O` [Cpd 129, 10-(ethylamino)-4-hydroxy-2-oxo-1,2,5,6,7,8-hexahydrobenzo[7,8]cycloocta[1,2-b]pyridine-3-carboxylic acid], the MIC in assay [1] was in the range of 12.5 to 150 µg/mL (≈ 38.1 to 457 µM); in assay [2] it was 3.5 to 12.5 µg/mL (≈ 10.7 to 38.1 µM); in assay [3], 1 to 3.5 µg/mL (≈ 3.05 to 10.7 µM).

As to `Cn1c2c(cc(C(=O)O)c1=O)CC=Cc1cc3c(ccn3C)cc1-2` [Cpd 130, 1,9-dimethyl-2-oxo-1,2,5,9-tetrahydropyrido[3′,2′:6,7]cyclohepta[1,2-f]indole-3-carboxylic acid], the minimal inhibitory concentration (MIC) in assay [1] is 3.5 to 12.5 µg/mL (≈ 10.9 to 39 µM); in assay [2], 12.5 to 150 µg/mL (≈ 39 to 468 µM); in assay [3], less than 1 µg/mL.

Turning to `Cn1c2c(c(O)c(C(=O)O)c1=O)CC=Cc1cc3c(ccn3C)cc1-2` [Cpd 131, 4-hydroxy-1,9-dimethyl-2-oxo-1,2,5,9-tetrahydropyrido[3′,2′:6,7]cyclohepta[1,2-f]indole-3-carboxylic acid], the minimum inhibitory concentration (MIC) in assay [1] is 12.5 to 150 µg/mL (≈ 37.2 to 446 µM); in assay [2], 3.5 to 12.5 µg/mL (≈ 10.4 to 37.2 µM); in assay [3] it was less than 1 µg/mL.

Turning to `CCn1c2c(c(O)c(C(=O)O)c1=O)CC=Cc1cc3c(ccn3C)cc1-2` [Cpd 132, 1-ethyl-4-hydroxy-9-methyl-2-oxo-1,2,5,9-tetrahydropyrido[3′,2′:6,7]cyclohepta[1,2-f]indole-3-carboxylic acid], the figures for the MIC in assay [1], in assay [2] and in assay [3] were 12.5 to 150 µg/mL (≈ 35.7 to 428 µM), 3.5 to 12.5 µg/mL (≈ 9.99 to 35.7 µM) and 3.5 to 12.5 µg/mL (≈ 9.99 to 35.7 µM), respectively.

For `Cn1c2c(cc(C(=O)O)c1=O)CCCc1cc3c(ccn3C)cc1-2` [Cpd 133, 1,9-dimethyl-2-oxo-1,2,5,6,7,9-hexahydropyrido[3′,2′:6,7]cyclohepta[1,2-f]indole-3-carboxylic acid], the minimum inhibitory concentration (MIC) was 3.5 to 12.5 µg/mL (≈ 10.9 to 38.8 µM) in assay [1], 12.5 to 150 µg/mL (≈ 38.8 to 465 µM) in assay [2] and less than 1 µg/mL in assay [3].

Turning to `Cn1c2c(c(O)c(C(=O)O)c1=O)CCCc1cc3c(ccn3C)cc1-2` [Cpd 134, 4-hydroxy-1,9-dimethyl-2-oxo-1,2,5,6,7,9-hexahydropyrido[3′,2′:6,7]cyclohepta[1,2-f]indole-3-carboxylic acid], the minimal inhibitory concentration (MIC) is 12.5 to 150 µg/mL (≈ 36.9 to 443 µM) in assay [1], 3.5 to 12.5 µg/mL (≈ 10.3 to 36.9 µM) in assay [2] and less than 1 µg/mL in assay [3].

Consider `CN1CCc2cc3c(cc21)CCCc1c(O)c(C(=O)O)c(=O)n(C)c1-3` [Cpd 135, 4-hydroxy-1,9-dimethyl-2-oxo-1,2,5,6,7,9,10,11-octahydropyrido[3′,2′:6,7]cyclohepta[1,2-f]indole-3-carboxylic acid], for which the minimal inhibitory concentration (MIC) is 12.5 to 150 µg/mL (≈ 36.7 to 441 µM) in assay [1], 3.5 to 12.5 µg/mL (≈ 10.3 to 36.7 µM) in assay [2] and less than 1 µg/mL in assay [3].

As to `CCCCNCc1cc2cc3c(cc2n1C)CCCc1c-3[nH]c(=O)c(C(=O)O)c1O.Cl` [Cpd 136, 10-((butylamino)methyl)-4-hydroxy-9-methyl-2-oxo-1,2,5,6,7,9-hexahydropyrido[3′,2′:6,7]cyclohepta[1,2-f]indole-3-carboxylic acid hydrochloride], the results for the MIC in assay [1], in assay [2] and in assay [3] were less than 1 µg/mL, 3.5 to 12.5 µg/mL and less than 1 µg/mL, respectively.

Consider `CCCCCNCc1cc2cc3c(cc2n1C)CCCc1c-3[nH]c(=O)c(C(=O)O)c1O.Cl` [Cpd 137, 4-hydroxy-9-methyl-2-oxo-10-((pentylamino)methyl)-1,2,5,6,7,9-hexahydropyrido[3′,2′:6,7]cyclohepta[1,2-f]indole-3-carboxylic acid hydrochloride], for which the minimal inhibitory concentration (MIC) was less than 1 µg/mL in assay [1], 3.5 to 12.5 µg/mL in assay [2] and less than 1 µg/mL in assay [3].
